Experiments:
[1] = test system: mouse model for hind limb peripheral ischemia; test: Ranking analysis / overall evaluation of all parameters, mouse hind limb ischemia model; assay type: in vivo, Mouse/Athymic Nude; details: for Factor 2: Difference between ranks of adjacent-ranked groups / Factor by which average rank differs from the top-ranked group (4) / Average Rank: Day 35, imputed data; for Average Rank: average over Blood Flow, Limb Function, Ischemic Severity Score
Excerpt: Study end points were: Clinical score; Body weight measurements; Blood flow measurements Ranking analysis: Each group was given a ranking from 1 to 10 on each of the first 3 endpoints measured (% Blood Flow, Limb Function and Ischemic Severity Score). Rank=1 is highest and Rank=10 is lowest. When two groups are tied, both receive the same rank “in the middle”; e.g. if two groups were tied in Rank=4, both received the score 4.5 (twice of which is the sum of ranks 4 and 5). For each endpoint, the median was computed for each group (the median was used to ensure that extreme value will not affect results). On each endpoint, groups were sorted by median and each given its respective rank. The average rank was computed for each group over all endpoints
While paired comparisons were done, central results are presented in a way in that they are statistically relevant and can be clearly depicted in graphics. Data are consistent across endpoints and are consistent across different analysis. To obtain this picture we eliminated Weight from consideration. […] Each group was ranked on remaining 3 endpoints on day 35 and assessed Average Rank of groups—a measure combining results from all endpoints.
Evaluating all Parameters Concurrently at Day 35. Procedure: For each parameter (Blood Flow (%), Limb Function and Ischemic Severity Score) the median in the group across all animals was computed. All the groups based on their median from 1 to 10, where 1 is best, were ranked on each of the following parameters: Blood Flow {%)—highest is 1, lowest is 10; Limb Function—highest is 10, lowest is 1 (worst category is 3, best is 0); Ischemic Severity Score—highest is 10, lowest is 1 (worst category is 4, best is 0); Finally, for each group we computed the average rank over the three parameters.

[2] = test system: mouse model for hind limb peripheral ischemia; test: Animal disposition (amputations, completion of 35 days follow-up), mouse hind limb ischemia model; assay type: in vivo; details: for Completed % (completed 35 days follow-up) / Imputed % (amputation after day 14, attributed to treatment failure): % of animals of the group; for Completed N (completed 35 days follow-up) / Imputed N (amputation after day 14, attributed to treatment failure): number of animals of the group
Excerpt: A major problem in pre-clinical studies is often the high drop-out rate of animals due to treatment related failure (amputations after day 14 post surgery) or unrelated to treatment (e.g. death during anesthesia, or amputations before day 14 post surgery). Only a few animals had to be excluded from statistical analysis due to the latter reason.
(§1) Disclosed herein is the testing of BM MSCs in a mouse model for hind limb peripheral ischemia. Peripheral artery disease (PAD) is a form of peripheral vascular diseases (PVD) in which there are partial or total blockage of blood supply to a limb, usually the leg, leading to impaired blood flow and hypoxia in the tissue. When PAD advances it reaches the stage of critical limb ischemia (CLI) with skin ulcerations, gangrene and unavoidable amputations. One of the most promising innovative treatments for diabetic vascular complications is stem cell-based products that enhance angiogenesis (TRefl-3) Hind limb ischemia animal models have been used to evaluate various therapeutic approaches addressing stem cell transplantation.
Under anesthesia, the mouse was placed with ventral side up. A 0.5-1.0 cm incision was made in the skin in the inguinal area. The femoral artery was ligated twice with 6-0 silk thread and transected between the ligatures. The wound was closed with 4-0 silk thread and the mouse was allowed to recover.
On DAY 1, 24 hours post-surgery, each treated animal was injected intramuscular at two sites (the proximal and the distal side of the surgical wound) or intravenous into the tail vein. For intramuscular injection the animals were injected 50 μl at each site, total 100 μl per animal. For intravenous injection the animals were injected by 200 μl per animal.
(§2) In further analyses the imputation of missing data is done in the following way: Blood Flow (%): Value of the first measurement after the surgery (assumption is that treatment failed so that there is no improvement beyond what was observed immediately after surgery); Ischemic Severity Score: 4=“Total Hind-Limb Loss” (the worst score possible); Limb Function 3=“Dragging of foot” (the worst score possible); Weight (g): The animal's lowest weight at any of the points measured up to and including the day of amputation.

[3] = test system: mouse model for hind limb peripheral ischemia; test: Macroscopic evaluation of ischemic severity (morphological grades for necrotic area), mouse hind limb ischemia model; assay type: in vivo, Mouse/Athymic Nude; details: Day 35, imputed data, group median, rank 1 best of 10 groups
Excerpt: as §1
Under anesthesia, the mouse was placed with ventral side up. A 0.5-1.0 cm incision was made in the skin in the inguinal area. The femoral artery was ligated twice with 6-0 silk thread and transected between the ligatures. […]
(§3) Body weight was measured on study day −1 prior to the surgery and once weekly thereafter. Blood flow measurement: Blood flow in legs from both sides was measured with a non-contact Laser Doppier before surgery and on days: 1, 3, 7, 14, 21, 28 and 35 post operation. Blood flow measurements were expressed as the ratio of the flow in the ischemic limb to that in the normal limb (Goto et al. Tokai J Exp Clin Med., Vol. 31, No. 3, pp. 128-132, 2006). […]

[4] = test system: mouse model for hind limb peripheral ischemia; test: In vivo assessment of limb function (graded scale), mouse hind limb ischemia model; parameters: species or system Mouse/Athymic Nude; details: Day 35, imputed data, group median, rank 1 best of 10 groups
Excerpt: Disclosed herein is the testing of BM MSCs in a mouse model for hind limb peripheral ischemia. Peripheral artery disease (PAD) is a form of peripheral vascular diseases (PVD) in which there are partial or total blockage of blood supply to a limb, usually the leg, leading to impaired blood flow and hypoxia in the tissue. When PAD advances it reaches the stage of critical limb ischemia (CLI) with skin ulcerations, gangrene and unavoidable amputations. […]
In vivo assessment of limb function and Ischemic damage. Semi-quantitative assessment of impaired use of the ischemic limb was performed once a week post-surgery using the following scale (Stabile et al., Circulation. 2003; 15; 108{2):205-210). […]
In vivo assessment of limb function. Semi-quantitative assessment of impaired use of the ischemic limb was performed on days 7 up to 35 by using graded functional scales. […]
as §2

[5] = test system: mouse model for hind limb peripheral ischemia; test: Blood flow measurement (non-contact Laser Doppler), mouse hind limb ischemia model; assay type: in vivo, Mouse/Athymic Nude; details: for Rank of treatment group, Blood Flow: Day 35, imputed data, group median, rank 1 best of 10 groups
Excerpt: as §1
Animal handling was according to the National Institute of Health (NIH) and the Association for Assessment and Accreditation of Laboratory Animal Care (AAALAC). Animals were housed in polysufone (PSU) cages (7-8/cage) measuring […] cm, with stainless steel top grill having facilities for pelleted food and drinking water in glass-clear polycarbonate bottle; bedding: steam sterilized clean paddy husk (Harlan, Sani-chip, Cat#: 106S8216) was used and bedding material was changed along with the cage at least twice a week. Animals were fed ad libitum a commercial rodent diet (Teklad Certified Global 18% Protein Diet cat #: 106S8216). Animals have free access to autoclaved and acidified drinking water (pH between 2.5 and 3.5) obtained from the municipality supply. Animals were housed under standard laboratory conditions, air conditioned and filtered (HEPA F6/6) with adequate fresh air supply (Minimum 15 air changes/hour). Animals were kept in a climate controlled environment. Temperatures range was 20-24° C. and RH range was 30-70% with 12 hours light and 12 hours dark cycle. Species/Strain: Mouse/Athymic Nude; Gender/Number/Age: Male/152/9-10 weeks; Source: Harlan Laboratories, Israel; Body weight: The average body weight was 28.4 g at study initiation (day 1). The minimum and maximum weights of the group were within a range of ±20% of group mean weight; Acclimation period: 5-10 days; Identification: Three position ear notching and cage cards. […] Surgery Day was defined as “DAY 0” in this study. On the day of surgery anesthesia was induced by 1.5 to 3.0% isofiurane, 1.5% N2O and 0.5% O2. […]
as §3

With Cc1ccc2c(c1)C(=O)C1(O)CCN(c3ccccc3)C1=N2 (centres unmarked) [DMEM + BB, blebbistatin] as the compound, how does the “overall efficacy in the model” value ([1]; conclusion over endpoints) read?
Its value is “no beneficial effect”.

What about the “Factor 2: Difference between ranks of adjacent-ranked groups” value ([1]; im) of the same compound?
The value was 0.8.

What about the “Factor by which average rank differs from the top-ranked group (4)” value ([1]; im) of the same compound?
The value was 4.7.

What about the “Average Rank” value ([1]; im) of the same compound?
The value was 5.8.

And the “Factor 2: Difference between ranks of adjacent-ranked groups” value ([1]; iv)?
Its value is 0.0.

What about the “Factor by which average rank differs from the top-ranked group (4)” value ([1]; iv) of the same compound?
Its value is 4.7.

And the “Average Rank” value ([1]; iv)?
The value was 5.8.

And the “Completed % (completed 35 days follow-up)” value ([2]; im)?
Its value is 82.4%.

And the “Imputed % (amputation after day 14, attributed to treatment failure)” value ([2]; im)?
The value was 0%.

And the “Completed N (completed 35 days follow-up)” value ([2]; im)?
The value was 14.

What about the “Imputed N (amputation after day 14, attributed to treatment failure)” value ([2]; im) of the same compound?
The value was 0.

What about the “Completed % (completed 35 days follow-up)” value ([2]; iv) of the same compound?
Its value is 93.3%.

What about the “Imputed % (amputation after day 14, attributed to treatment failure)” value ([2]; iv) of the same compound?
The value was 0%.

What about the “Completed N (completed 35 days follow-up)” value ([2]; iv) of the same compound?
The value was 14.

What about the “Imputed N (amputation after day 14, attributed to treatment failure)” value ([2]; iv) of the same compound?
The value was 0.

What about the “Rank of treatment group, Ischemic Severity Score” value ([3]; im) of the same compound?
Its value is 6.

What about the “Rank of treatment group, Ischemic Severity Score” value ([3]; iv) of the same compound?
The value was 6.

And the “Rank of treatment group, Limb Function” value ([4]; im)?
Its value is 5.

What about the “Rank of treatment group, Limb Function” value ([4]; iv) of the same compound?
Its value is 5.

What about the “regeneration of blood flow” value ([5]; blebbistatin alone, without cells, FIGS. 1A-B) of the same compound?
The value was “no effect on the regeneration of blood flow”.

And the “Rank of treatment group, Blood Flow” value ([5]; im)?
The value was 6.5.

What about the “regeneration in blood flow over time” value ([5]; intramuscular, FIG. 1A) of the same compound?
The value was “marginally recovery effects”.

And the “Rank of treatment group, Blood Flow” value ([5]; iv)?
Its value is 6.5.
